Laboratory results published in paper PMC5820046 (Internal Medicine, 2017).
Where two headings read alike, the source gives them in different places.

Columns and labels:
[1] = test system: plasma protein; assay: Plasma protein binding of DAP, present case; format: in vitro ADME, human; settings: patient plasma, DAP 7 mg/kg every 48 hours
[2] = present case, DAP 7 mg/kg every 48 hours, chronic renal failure, HPLC
[3] = test system: patient; settings: present case
[4] = test system: T cells; settings: present case
[5] = test system: patient; settings: present case, rapid type
[6] = test system: patient; settings: present case (case 37)
[7] = test system: patients; settings: phase III clinical trials; cited from earlier work
[8] = test system: patients; settings: FDA adverse event reporting system, 2004 to 2010; cited from earlier work
[9] = healthy volunteers; DAP 6 mg/kg every 24 hours; cited from earlier work
[10] = test system: plasma protein; settings: healthy volunteers, escalating dose levels; cited from earlier work
[11] = test system: patients; settings: cited from earlier work

Compound: CCCCCCCCCC(=O)N[C@@H](Cc1c[nH]c2ccccc12)C(=O)N[C@H](CC(N)=O)C(=O)N[C@@H](CC(=O)O)C(=O)N[C@@H]1C(=O)NCC(=O)N[C@@H](CCCN)C(=O)N[C@@H](CC(=O)O)C(=O)N[C@H](C)C(=O)N[C@@H](CC(=O)O)C(=O)NCC(=O)N[C@H](CO)C(=O)N[C@@H]([C@H](C)CC(=O)O)C(=O)N[C@@H](CC(=O)c2ccccc2N)C(=O)O[C@@H]1C [DAP, Daptomycin]
- percentage of plasma protein-bound DAP [1]: 87.8%
- median plasma DAP Cmin [2]: 27400 ng/mL
- Skin tests, prick-puncture administration and patch tests, reaction [3]: negative
- drug lymphocyte stimulation test (DLST) reaction [4]: negative
- intracutaneous test reaction [5]: positive
- intracutaneous test reaction ([5]; listed as daptomycin): positivity
- Imaging findings ([6]; DAP 7 mg/kg): Bilateral, peripheral nodules and patchy consolidations
- Prognosis ([6]; initial treatment withdrawal): Recover
- myopathic symptoms, patients [7]: 0.2%
- serum creatinine kinase (CK) elevation, patients [7]: 2.8%
- patients who developed DAP-associated EP [8]: 63 patients
- median plasma DAP Cmin [9]: 9130 ng/mL
- percentage of DAP plasma protein binding [10]: consistent across dose levels
- DAP Cmin associated with an increased probability of CK elevation [11]: 24300 ng/mL
